Experiment: mn = molality of the nth substance listed, in mol/kg
Details: 100 kPa, Liquid; for speed of sound: Frequency=3 MHz, Sing-around technique in a fixed-path interferometer; for mass density: Vibrating tube method

[Ba+2].[O-][Cl+3]([O-])([O-])[O-].[O-][Cl+3]([O-])([O-])[O-] [barium perchlorate] + CC(=O)N(C)C
Details | mass density, 298.15 K [kg/m3] | mass density, 303.15 K [kg/m3] | mass density, 308.15 K [kg/m3] | mass density, 313.15 K [kg/m3] | mass density, 318.15 K [kg/m3] | speed of sound, 298.15 K [m/s] | speed of sound, 303.15 K [m/s] | speed of sound, 308.15 K [m/s] | speed of sound, 313.15 K [m/s] | speed of sound, 318.15 K [m/s]
m1 = 0.01314 | 939.723 | 935.116 | 930.504 | 925.882 | 921.254 | 1457.2 | 1437.5 | 1417.7 | 1398.1 | 1378.6
m1 = 0.02301 | 942.289 | 937.692 | 933.085 | 928.469 | 923.849 | 1458 | 1438.3 | 1418.6 | 1399.1 | 1379.6
m1 = 0.03274 | 944.807 | 940.214 | 935.612 | 931.002 | 926.384 | 1458.8 | 1439.2 | 1419.5 | 1400 | 1380.6
m1 = 0.04665 | 948.382 | 943.793 | 939.196 | 934.591 | 929.98 | 1459.9 | 1440.4 | 1420.8 | 1401.4 | 1382
m1 = 0.06587 | 953.282 | 948.701 | 944.112 | 939.515 | 934.912 | 1461.4 | 1441.9 | 1422.5 | 1403.1 | 1383.8
m1 = 0.08329 | 957.7 | 953.122 | 948.539 | 943.99 | 939.4 | 1462.7 | 1443.3 | 1423.9 | 1405 | 1385.8
m1 = 0.1042 | 963.001 | 958.419 | 953.839 | 949.253 | 944.664 | 1464.5 | 1445 | 1425.7 | 1406.5 | 1387.4
m1 = 0.1312 | 969.764 | 965.202 | 960.631 | 956.055 | 951.474 | 1466.2 | 1447 | 1427.8 | 1408.8 | 1389.8
m1 = 0.1609 | 977.195 | 972.637 | 968.076 | 963.509 | 958.937 | 1468.4 | 1449.3 | 1430.3 | 1411.3 | 1392.5
m1 = 0.1965 | 985.908 | 981.362 | 976.808 | 972.249 | 967.689 | 1470.8 | 1451.9 | 1432.9 | 1414.1 | 1395.4

[Ba+2].[O-][Cl+3]([O-])([O-])[O-].[O-][Cl+3]([O-])([O-])[O-] [barium perchlorate] + CN(C)C=O
Details | mass density, 298.15 K [kg/m3] | mass density, 303.15 K [kg/m3] | mass density, 308.15 K [kg/m3] | mass density, 313.15 K [kg/m3] | mass density, 318.15 K [kg/m3] | speed of sound, 298.15 K [m/s] | speed of sound, 303.15 K [m/s] | speed of sound, 308.15 K [m/s] | speed of sound, 313.15 K [m/s] | speed of sound, 318.15 K [m/s]
m1 = 0.01339 | 947.432 | 942.667 | 937.889 | 933.096 | 928.287 | 1458.1 | 1438.9 | 1419.6 | 1400.4 | 1381.3
m1 = 0.02254 | 949.821 | 945.058 | 940.281 | 935.489 | 930.686 | 1458.7 | 1439.5 | 1420.2 | 1401.1 | 1381.9
m1 = 0.0331 | 952.562 | 947.81 | 943.03 | 938.243 | 933.442 | 1459.5 | 1440.2 | 1420.9 | 1401.8 | 1382.7
m1 = 0.04712 | 956.179 | 951.422 | 946.652 | 941.866 | 937.07 | 1459.9 | 1440.9 | 1421.7 | 1402.7 | 1383.7
m1 = 0.06582 | 960.992 | 956.235 | 951.468 | 946.686 | 941.893 | 1460.9 | 1441.9 | 1422.8 | 1403.8 | 1384.9
m1 = 0.08395 | 965.617 | 960.865 | 956.099 | 951.321 | 946.53 | 1461.8 | 1442.8 | 1423.8 | 1405 | 1386.1
m1 = 0.1061 | 971.226 | 966.477 | 961.715 | 956.94 | 952.153 | 1462.8 | 1444 | 1425.1 | 1406.3 | 1387.5
m1 = 0.1322 | 977.835 | 973.089 | 968.33 | 963.559 | 958.776 | 1464.1 | 1445.4 | 1426.6 | 1407.8 | 1389.2
m1 = 0.1588 | 984.508 | 979.766 | 975.008 | 970.24 | 965.461 | 1465.4 | 1446.8 | 1428 | 1409.4 | 1390.8
m1 = 0.1995 | 994.63 | 989.888 | 985.134 | 980.371 | 975.596 | 1467.4 | 1448.9 | 1430.3 | 1411.8 | 1393.3
